In patent US11439667B2, “Compositions and methods for expansion of embryonic hematopoietic stem cells” (Fred Hutchinson Cancer Research Center, priority 2013, dated 2022):

Tests used:
[1] = system: ESC-derived endothelial cells; conditions: cited from earlier work
[2] = system: mouse AGM VE-Cadherin+/CD45+ cells; experiment: ex vivo expansion of AGM-derived embryonic HSPC, surface phenotype by FACS; assay type: cell-based; conditions: combined with Notch agonist (such as Delta1ext-IgG) and one or more growth factors
Description: Embryos were harvested from pregnant females at 9.5 to 11.5 dpc, dissected free of maternal tissue and washed extensively in PBS containing 10% fetal bovine serum (FBS). Embryo age was precisely time by counting somite numbers. Yolks sac was dissected free from the embryo. For AGM dissections, 30 gauge needles were used to remove the caudal and rostral portions of the embryo above the forelimbs and below the hindlimbs, and subsequently dissect off the dorsal somite tissue and ventral abdominal contents. The embryo was then splayed open lying on its dorsal surface and remaining tissues surrounding the urogenital ridges were further dissected, leaving the intact AGM containing the dorsal aorta centrally. For embryos prior to AGM stage (E9.5 or less), the P-Sp region was dissected by removing the rostral and caudal portions of the embryo. Dissected yolk sac or AGM/P-Sp tissues were pooled and treated with 0.25% collagenase (Stem Cell Technologies, Vancouver, Canada) for 25-30 minutes at 37° C., pipetted to single cell suspension, and washed with PBS containing 10% FBS. For Ly6a-eGFP transgenic embryos, dissected embryos were processed separately and pooled for sorting, if indicated, following confirmation of GFP expression. […]

human ESC = conditions: Wang C, et al. Cell Res. 2012; cited from earlier work
human osteosarcoma cells = conditions: cited from earlier work
ALK7 = target: T1, ALK7 (Homo sapiens, UniProt Q8NER5); conditions: cited from earlier work
T1 sequence (Q8NER5 21-493): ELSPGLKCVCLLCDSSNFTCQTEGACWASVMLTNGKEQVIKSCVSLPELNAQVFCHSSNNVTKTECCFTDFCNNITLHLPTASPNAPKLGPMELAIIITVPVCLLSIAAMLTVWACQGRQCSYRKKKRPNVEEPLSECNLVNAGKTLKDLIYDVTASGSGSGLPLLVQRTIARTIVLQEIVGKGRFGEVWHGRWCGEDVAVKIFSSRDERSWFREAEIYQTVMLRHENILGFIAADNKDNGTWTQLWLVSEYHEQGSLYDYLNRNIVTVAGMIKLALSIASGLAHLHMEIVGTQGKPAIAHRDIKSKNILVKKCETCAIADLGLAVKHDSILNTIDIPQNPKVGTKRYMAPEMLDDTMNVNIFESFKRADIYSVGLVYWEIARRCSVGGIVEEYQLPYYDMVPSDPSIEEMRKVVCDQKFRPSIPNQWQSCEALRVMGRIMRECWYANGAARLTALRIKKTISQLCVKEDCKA

NC(=O)c1ccc(-c2nc(-c3ccc4c(c3)OCO4)c(-c3ccccn3)[nH]2)cc1 [SB431542, 4-[4-(1,3-benzodioxol-5-yl)-5-(2-pyridinyl)-1H-imidazol-2-yl]benzamide]
effect on proliferation, differentiation and sheet formation of ESC-derived endothelial cells [1]: stimulate
effect on expansion of the eHSC when combined with Notch agonist and growth factors [2]: additive and/or synergistic effect
effect on general hematopoiesis from human ESC (human ESC): enhance general hematopoiesis, though not engrafting HSC
effect on TGF-β-induced proliferation of human osteosarcoma cells (human osteosarcoma cells): suppress
inhibition of ALK7 (ALK7): potent and selective inhibitor
